# Test results: ChEMBL document CHEMBL1142208, “Protection of mice from lethal Escherichia coli infection by chimeric human bactericidal/permeability-increasing protein and immunoglobulin G1 Fc gene delivery” (2007)
# Assays:
# Mus musculus [1] = assay: Survival rate of BALB/c mouse infected with Escherichia coli O111:B4 at 25 ug, im within 48 hrs; format: functional
# Mus musculus [2] = assay: Mortality rate of BALB/c mouse infected with Escherichia coli O111:B4 at 25 ug, im within 48 hrs; format: functional
compound,measurement,setting,value
CO/N=C(\C(=O)N[C@@H]1C(=O)N2C(C(=O)O)=C(COC(N)=O)CS[C@H]12)c1ccco1 [CEFUROXIME],Survival,Mus musculus [1],5%
same,Survival,Mus musculus [2],91.4%
